Columns and labels:
[1] = target: T1, recombinant human ALK5 (TGF-βR1) protein (Homo sapiens, UniProt P36897); assay: Biochemical ALK5 (TGF-βR1) assay to measure pKi (LANCE Ultra ULight kinase assay); conditions: apparent pKi from pIC50 by Cheng-Prusoff, read-out: ALK5 pKi (converted)
T1 construct: purchased Life Technologies PR9075A
T1 sequence (P36897 34-503): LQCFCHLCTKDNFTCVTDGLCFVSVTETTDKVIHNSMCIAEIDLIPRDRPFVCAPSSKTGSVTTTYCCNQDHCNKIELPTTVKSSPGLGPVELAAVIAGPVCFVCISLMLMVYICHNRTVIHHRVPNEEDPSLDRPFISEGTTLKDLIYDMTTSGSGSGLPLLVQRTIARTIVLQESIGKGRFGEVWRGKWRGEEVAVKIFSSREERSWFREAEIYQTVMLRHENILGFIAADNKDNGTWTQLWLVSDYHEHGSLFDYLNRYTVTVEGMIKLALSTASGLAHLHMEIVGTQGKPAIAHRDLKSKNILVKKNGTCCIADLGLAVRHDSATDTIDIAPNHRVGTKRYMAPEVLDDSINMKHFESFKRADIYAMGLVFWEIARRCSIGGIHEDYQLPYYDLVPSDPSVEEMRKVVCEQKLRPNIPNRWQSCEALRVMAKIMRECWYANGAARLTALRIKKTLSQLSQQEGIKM
Procedure, shortened: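 Compounds (10 μM to 25 pM) preincubated 60 minutes at room temperature with enzyme, then reaction run 60 minutes at 37° C with ATP added as 125 μM (5× final). Stopped with EDTA plus Eu-anti-phospho-Topoisomerase 2-alpha (Thr1342) antibody, TR-FRET read at 665 nm; pIC50 converted to pKi via Cheng-Prusoff.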

[2] = system: TGF-β-stimulated SMAD3 phosphorylation in BEAS-2B cells; assay: Cellular ALK5 potency assay, inhibition of TGF-β stimulated pSMAD3 formation in BEAS-2B cells; format: cell-based; conditions: Homo sapiens; inhibition of TGF-β stimulated pSMAD3 formation, BEAS-2B cells; read-out: BEAS2B pIC50 (converted)
Procedure, shortened: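 Cells seeded overnight; rinse with supplemented HBSS; compound 1 h at 37 °C; TGF-β 10 ng/mL final, 30 min; lyse; AlphaLISA acceptor and detector beads 2 h apart, read next day. Potency expressed as pIC50.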

Question: `Cc1cccc(-c2n[nH]cc2-c2ccc3ncc(-c4cn[nH]c4)cc3n2)n1` [Compound 233, 2-[3-(6-methyl-2-pyridyl)-1H-pyrazol-4-yl]-7-(1H-pyrazol-4-yl)-1,5-naphthyridine] was tested. Which Ki [1] did it give?
Answer: The Ki was < 0.0316 nM.

Question: And the IC50 [2]?
Answer: Its IC50 is < 20 nM.

Question: What does the source list for `CCC(=O)Nc1cnc2ccc(-c3c[nH]nc3-c3cccc(C)n3)nc2c1` [Compound 234, N-[6-[3-(6-methyl-2-pyridyl)-1H-pyrazol-4-yl]-1,5-naphthyridin-3-yl]propanamide]?
Answer: Ki [1]: < 0.0316 nM; IC50 [2]: < 20 nM

Question: For `Cc1cccc(-c2n[nH]cc2-c2ccc3ncc(-c4cncc(N)n4)cc3n2)n1` [Compound 235, 6-[6-[3-(6-methyl-2-pyridyl)-1H-pyrazol-4-yl]-1,5-naphthyridin-3-yl]pyrazin-2-amine], which Ki [1] is on record?
Answer: The Ki was 0.0398 to 0.316 nM.

Question: What about the IC50 [2] of the same compound?
Answer: Its IC50 is 25.1 to 158 nM.

Question: What does the source list for `Cc1cccc(-c2n[nH]cc2-c2ccc3ncc(C#N)cc3n2)n1` [Compound 236, 6-[3-(6-methyl-2-pyridyl)-1H-pyrazol-4-yl]-1,5-naphthyridine-3-carbonitrile]?
Answer: Ki [1]: 0.398 to 3.16 nM; IC50 [2]: 25.1 to 158 nM

Question: `CNCCn1cc(-c2cnc3ccc(-c4c[nH]nc4-c4cccc(C(F)(F)F)n4)nc3c2)cn1` [Compound 237, N-methyl-2-(4-(6-(3-(6-(trifluoromethyl)pyridin-2-yl)-1H-pyrazol-4-yl)-1,5-naphthyridin-3-yl)-1H-pyrazol-1-yl)ethan-1-amine] was tested. Which Ki [1] did it give?
Answer: Its Ki is < 0.0316 nM.

Question: What about the IC50 [2] of the same compound?
Answer: The IC50 was 25.1 to 158 nM.

Question: `Cc1cccc(-c2n[nH]c(N)c2-c2ccc3ncc(N4CCNCC4)cc3n2)n1` [Compound 238, 3-(6-methyl-2-pyridyl)-4-(7-piperazin-1-yl-1,5-naphthyridin-2-yl)-1H-pyrazol-5-amine] was tested. Which Ki [1] did it give?
Answer: Its Ki is 0.398 to 3.16 nM.

Question: And the IC50 [2]?
Answer: Its IC50 is 1580 to 10000 nM.

Question: How did the Ki [1] turn out when `Cc1cccc(-c2n[nH]cc2-c2ccc3ncc(NCCN4CCOCC4)cc3n2)n1` [Compound 239, 6-[3-(6-methyl-2-pyridyl)-1H-pyrazol-4-yl]-N-(2-morpholinoethyl)-1,5-naphthyridin-3-amine] was run?
Answer: The Ki was 0.0398 to 0.316 nM.

Question: What about the IC50 [2] of the same compound?
Answer: Its IC50 is 25.1 to 158 nM.

Question: What does the source list for `Cc1cccc(-c2n[nH]cc2-c2ccc3ncc(-c4cnn(CC(=O)O)c4)cc3n2)n1` [Compound 240, 2-[4-[6-[3-(6-methyl-2-pyridyl)-1H-pyrazol-4-yl]-1,5-naphthyridin-3-yl]pyrazol-1-yl]acetic acid]?
Answer: Ki [1]: < 0.0316 nM; IC50 [2]: 25.1 to 158 nM

Question: Which results are given for `Cc1cccc(-c2n[nH]cc2-c2ccc3ncc(OCCN4CCN(C(C)C)CC4)cc3n2)n1` [Compound 241, 7-[2-(4-isopropylpiperazin-1-yl)ethoxy]-2-[3-(6-methyl-2-pyridyl)-1H-pyrazol-4-yl]-1,5-naphthyridine]?
Answer: Ki [1]: 0.0398 to 0.316 nM; IC50 [2]: 200 to 1260 nM

Question: How did the Ki [1] turn out when `Cc1cccc(-c2n[nH]cc2-c2ccc3ncc(-c4c(C)noc4C)cc3n2)n1` [Compound 243, 3,5-dimethyl-4-[6-[3-(6-methyl-2-pyridyl)-1H-pyrazol-4-yl]-1,5-naphthyridin-3-yl]isoxazole] was run?
Answer: Its Ki is 0.398 to 3.16 nM.

Question: And the IC50 [2]?
Answer: Its IC50 is 25.1 to 158 nM.

Question: What does the source list for `Cc1cccc(-c2nnn(C)c2-c2ccc3ncc(NCCN4CCN(C(C)C)CC4)cc3c2)n1` [Compound 244, N-[2-(4-isopropylpiperazin-1-yl)ethyl]-6-[3-methyl-5-(6-methyl-2-pyridyl)triazol-4-yl]quinolin-3-amine]?
Answer: Ki [1]: 0.0398 to 0.316 nM; IC50 [2]: 25.1 to 158 nM

Question: For `Cc1nc(-c2n[nH]cc2-c2ccc3ncc(-c4cnc5n4CCNC5)cc3n2)ccc1F` [Compound 245, 2-[3-(5-fluoro-6-methyl-2-pyridyl)-1H-pyrazol-4-yl]-7-(5,6,7,8-tetrahydroimidazo[1,2-a]pyrazin-3-yl)-1,5-naphthyridine], which Ki [1] is on record?
Answer: Its Ki is 0.0398 to 0.316 nM.

Question: What about the IC50 [2] of the same compound?
Answer: The IC50 was 25.1 to 158 nM.

Question: Which Ki [1] does the source give for `Cc1cccc(-c2n[nH]cc2-c2ccc3ncc(-c4nc(CN5CCN(C(C)C)CC5)co4)cc3n2)n1` [Compound 246, 4-[(4-isopropylpiperazin-1-yl)methyl]-2-[6-[3-(6-methyl-2-pyridyl)-1H-pyrazol-4-yl]-1,5-naphthyridin-3-yl]oxazole] here?
Answer: The Ki was 0.0398 to 0.316 nM.

Question: What about the IC50 [2] of the same compound?
Answer: Its IC50 is 25.1 to 158 nM.

Question: `Cc1cccc(-c2[nH]ncc2-c2ccc3ncc(C(=O)NN)cc3n2)n1` [Compound 247, 6-[5-(6-methyl-2-pyridyl)-1H-pyrazol-4-yl]-1,5-naphthyridine-3-carbohydrazide] was tested. Which Ki [1] did it give?
Answer: The Ki was 0.0398 to 0.316 nM.

Question: What about the IC50 [2] of the same compound?
Answer: The IC50 was 25.1 to 158 nM.

Question: What does the source list for `CNC1CC2CCC(C1)N2c1cnc2ccc(-c3c[nH]nc3-c3cccc(C)n3)nc2c1` (stereo not shown) [Compound 248, N-methyl-8-[6-[3-(6-methyl-2-pyridyl)-1H-pyrazol-4-yl]-1,5-naphthyridin-3-yl]-8-azabicyclo[3.2.1]octan-3-amine]?
Answer: Ki [1]: 3.98 to 31.6 nM; IC50 [2]: 200 to 1260 nM

Question: `Cc1cccc(-c2n[nH]cc2-c2ccc3ncc(N4CCN[C@H](C)C4)cc3n2)n1` [Compound 249, 7-[(3R)-3-methylpiperazin-1-yl]-2-[3-(6-methyl-2-pyridyl)-1H-pyrazol-4-yl]-1,5-naphthyridine] was tested. Which Ki [1] did it give?
Answer: The Ki was 0.0398 to 0.316 nM.

Question: What about the IC50 [2] of the same compound?
Answer: Its IC50 is 25.1 to 158 nM.

Question: For `Cc1cccc(-c2n[nH]cc2-c2ccc3ncc(N4CCC(N5CCOCC5)CC4)cc3n2)n1` [Compound 250, 4-[1-[6-[3-(6-methyl-2-pyridyl)-1H-pyrazol-4-yl]-1,5-naphthyridin-3-yl]-4-piperidyl]morpholine], which Ki [1] is on record?
Answer: Its Ki is < 0.0316 nM.

Question: What about the IC50 [2] of the same compound?
Answer: The IC50 was 25.1 to 158 nM.

Question: `Cc1cccc(-c2n[nH]cc2-c2ccc3ncc(-c4ccc(C5CCCN(Cc6ccccc6)C5)cc4)cc3n2)n1` (stereo not shown) [Compound 251, 7-[4-(1-benzyl-3-piperidyl)phenyl]-2-[3-(6-methyl-2-pyridyl)-1H-pyrazol-4-yl]-1,5-naphthyridine] was tested. Which Ki [1] did it give?
Answer: The Ki was 0.0398 to 0.316 nM.

Question: What about the IC50 [2] of the same compound?
Answer: The IC50 was 200 to 1260 nM.

Question: What does the source list for `Cc1cccc(-c2[nH]cnc2-c2ccc3ncc(C4=CCC(NCc5ccccc5)CC4)cc3c2)n1` (stereo not shown) [Compound 252, N-benzyl-4-[6-[5-(6-methyl-2-pyridyl)-1H-imidazol-4-yl]-3-quinolyl]cyclohex-3-en-1-amine]?
Answer: Ki [1]: < 0.0316 nM; IC50 [2]: 25.1 to 158 nM

Question: With `Cc1cccc(-c2[nH]cnc2-c2ccc3ncc(C4=CCN(C(C)C)C4)cc3n2)n1` [Compound 253, 7-(1-isopropyl-2,5-dihydropyrrol-3-yl)-2-[5-(6-methyl-2-pyridyl)-1H-imidazol-4-yl]-1,5-naphthyridine] as the compound, how does the Ki [1] read?
Answer: The Ki was 0.0398 to 0.316 nM.

Question: And the IC50 [2]?
Answer: The IC50 was 25.1 to 158 nM.

Question: With `Cc1cccc(-c2nnn(Cc3ccccc3)c2-c2ccc3ncc(-c4cn[nH]c4)cc3c2)n1` [Compound 254, 6-[3-benzyl-5-(6-methyl-2-pyridyl)triazol-4-yl]-3-(1H-pyrazol-4-yl)quinoline] as the compound, how does the Ki [1] read?
Answer: Its Ki is 0.0398 to 0.316 nM.

Question: What about the IC50 [2] of the same compound?
Answer: Its IC50 is 25.1 to 158 nM.

Question: Which results are given for `Cc1cccc(-c2[nH]cnc2-c2ccc3ncc(NC(=O)CC4CNC4)cc3c2)n1` [Compound 255, 2-(azetidin-3-yl)-N-[6-[5-(6-methyl-2-pyridyl)-1H-imidazol-4-yl]-3-quinolyl]acetamide]?
Answer: Ki [1]: 0.0398 to 0.316 nM; IC50 [2]: 200 to 1260 nM

Question: `C=C(CN1CCNCC1)c1cnc2ccc(-c3nc[nH]c3-c3cccc(C)n3)cc2c1` [Compound 256, 6-[5-(6-methyl-2-pyridyl)-1H-imidazol-4-yl]-3-[1-(piperazin-1-ylmethyl)vinyl]quinoline] was tested. Which Ki [1] did it give?
Answer: The Ki was 0.0398 to 0.316 nM.

Question: What about the IC50 [2] of the same compound?
Answer: The IC50 was 25.1 to 158 nM.

Question: Which results are given for `Cc1cccc(-c2nnn(Cc3ccccc3)c2-c2ccc3ncc(N4CCCNCC4)cc3n2)n1` [Compound 257, 2-[3-benzyl-5-(6-methyl-2-pyridyl)triazol-4-yl]-7-(1,4-diazepan-1-yl)-1,5-naphthyridine]?
Answer: Ki [1]: 0.0398 to 0.316 nM; IC50 [2]: 200 to 1260 nM

Question: How did the Ki [1] turn out when `Cc1cccc(-c2[nH]cnc2-c2ccc3ncc(C4=CCC(NC(C)C)CC4)cc3n2)n1` (stereo not shown) [Compound 258, N-isopropyl-4-(6-(5-(6-methylpyridin-2-yl)-1H imidazol-4-yl)-1,5-naphthyridin-3-yl)cyclohex-3-en-1-amine] was run?
Answer: Its Ki is < 0.0316 nM.

Question: What about the IC50 [2] of the same compound?
Answer: The IC50 was 25.1 to 158 nM.

Question: For `Cc1cccc(-c2[nH]cnc2-c2ccc3ncc(C4=CCCNC4)cc3c2)n1` [Compound 259, 6-[5-(6-methyl-2-pyridyl)-1H-imidazol-4-yl]-3-(1,2,3,6-tetrahydropyridin-5-yl)quinoline], which Ki [1] is on record?
Answer: Its Ki is 0.0398 to 0.316 nM.

Question: And the IC50 [2]?
Answer: Its IC50 is < 20 nM.

Question: With `Cc1cccc(-c2n[nH]cc2-c2ccc3ncc(N4CC5CNCC54)cc3n2)n1` (stereo not shown) [Compound 260, 7-(3,6-diazabicyclo[3.2.0]heptan-6-yl)-2-[3-(6-methyl-2-pyridyl)-1H-pyrazol-4-yl]-1,5-naphthyridine] as the compound, how does the Ki [1] read?
Answer: Its Ki is 0.398 to 3.16 nM.

Question: And the IC50 [2]?
Answer: The IC50 was 200 to 1260 nM.

Question: Which results are given for `Cc1cccc(-c2n[nH]cc2-c2ccc3ncc(CCCN4CCOCC4)cc3n2)n1` [Compound 261, 4-[3-[6-[3-(6-methyl-2-pyridyl)-1H-pyrazol-4-yl]-1,5-naphthyridin-3-yl]propyl]morpholine]?
Answer: Ki [1]: 0.0398 to 0.316 nM; IC50 [2]: 25.1 to 158 nM

Question: Which Ki [1] does the source give for `CNCCN1CCn2cc(-c3cnc4ccc(-c5c[nH]nc5-c5cccc(C)n5)nc4c3)nc2C1` [Compound 262, N-methyl-2-[2-[6-[3-(6-methyl-2-pyridyl)-1H-pyrazol-4-yl]-1,5-naphthyridin-3-yl]-6,8-dihydro-5H-imidazo[1,2-a]pyrazin-7-yl]ethanamine] here?
Answer: The Ki was 0.0398 to 0.316 nM.

Question: And the IC50 [2]?
Answer: The IC50 was 200 to 1260 nM.
